{"source": "patent US20260285850A1", "about": "“SUBSTITUTED OXAZOLIDINONES AND IMIDAZOLINONES AS HERBICIDES” (FMC CORPORATION, priority 2023, published 2026)", "assay_type_in_all_cases": "in vivo", "key": {"[1]": {"tested_on": "barnyardgrass (Echinochloa crus-galli)", "test": "Test A preemergence soil spray, visual injury rating 0-100", "settings": "10 days", "summary_of_the_method": "(§1)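 Loam-sand pots got test material in surfactant-containing solvent, either as a directed soil spray before emergence or on plants at the one- to two-leaf stage. Visual injury (0-100) was read after ten greenhouse days.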"}, "[2]": {"tested_on": "blackgrass (Alopecurus myosuroides)", "test": "Test A preemergence soil spray, visual injury rating 0-100", "settings": "10 days", "summary_of_the_method": "as §1"}, "corn (Zea mays) [3]": {"tested_on": "corn (Zea mays)", "test": "Test A preemergence soil spray, visual injury rating 0-100", "settings": "10 days", "summary_of_the_method": "as §1"}, "[4]": {"tested_on": "green foxtail (Setaria viridis)", "test": "Test A preemergence soil spray, visual injury rating 0-100", "settings": "10 days", "summary_of_the_method": "as §1"}, "kochia (Bassia scoparia) [5]": {"tested_on": "kochia (Bassia scoparia)", "test": "Test A preemergence soil spray, visual injury rating 0-100", "settings": "10 days", "summary_of_the_method": "as §1"}, "[6]": {"tested_on": "oat, wild (wild oat, Avena fatua)", "test": "Test A preemergence soil spray, visual injury rating 0-100", "settings": "10 days", "summary_of_the_method": "as §1"}, "[7]": {"tested_on": "palmer (palmer amaranth, palmer pigweed, Amaranthus palmeri)", "test": "Test A preemergence soil spray, visual injury rating 0-100", "settings": "10 days", "summary_of_the_method": "as §1"}, "[8]": {"tested_on": "ragweed (common ragweed, Ambrosia artemisiifolia)", "test": "Test A preemergence soil spray, visual injury rating 0-100", "settings": "10 days", "summary_of_the_method": "as §1"}, "[9]": {"tested_on": "ryegrass, Italian (italian ryegrass, Lolium multiflorum)", "test": "Test A preemergence soil spray, visual injury rating 0-100", "settings": "10 days", "summary_of_the_method": "as §1"}, "soybean (Glycine max) [10]": {"tested_on": "soybean (Glycine max)", "test": "Test A preemergence soil spray, visual injury rating 0-100", "settings": "10 days", "summary_of_the_method": "as §1"}, "[11]": {"tested_on": "wheat (Triticum aestivum)", "test": "Test A preemergence soil spray, visual injury rating 0-100", "settings": "10 days", "summary_of_the_method": "as §1"}, "[12]": {"tested_on": "barnyardgrass (Echinochloa crus-galli)", "test": "Test A postemergence application, visual injury rating 0-100", "summary_of_the_method": "as §1"}, "[13]": {"tested_on": "blackgrass (Alopecurus myosuroides)", "test": "Test A postemergence application, visual injury rating 0-100", "summary_of_the_method": "as §1"}, "corn (Zea mays) [14]": {"tested_on": "corn (Zea mays)", "test": "Test A postemergence application, visual injury rating 0-100", "summary_of_the_method": "as §1"}, "[15]": {"tested_on": "green foxtail (Setaria viridis)", "test": "Test A postemergence application, visual injury rating 0-100", "summary_of_the_method": "as §1"}, "[16]": {"tested_on": "horseweed (Erigeron canadensis)", "test": "Test A postemergence application, visual injury rating 0-100", "summary_of_the_method": "as §1"}, "kochia (Bassia scoparia) [17]": {"tested_on": "kochia (Bassia scoparia)", "test": "Test A postemergence application, visual injury rating 0-100", "summary_of_the_method": "as §1"}, "[18]": {"tested_on": "oat, wild (wild oat, Avena fatua)", "test": "Test A postemergence application, visual injury rating 0-100", "summary_of_the_method": "as §1"}, "[19]": {"tested_on": "palmer (palmer amaranth, palmer pigweed, Amaranthus palmeri)", "test": "Test A postemergence application, visual injury rating 0-100", "summary_of_the_method": "as §1"}, "[20]": {"tested_on": "ragweed (common ragweed, Ambrosia artemisiifolia)", "test": "Test A postemergence application, visual injury rating 0-100", "summary_of_the_method": "as §1"}, "[21]": {"tested_on": "ryegrass, Italian (italian ryegrass, Lolium multiflorum)", "test": "Test A postemergence application, visual injury rating 0-100", "summary_of_the_method": "as §1"}, "soybean (Glycine max) [22]": {"tested_on": "soybean (Glycine max)", "test": "Test A postemergence application, visual injury rating 0-100", "summary_of_the_method": "as §1"}, "[23]": {"tested_on": "wheat (Triticum aestivum)", "test": "Test A postemergence application, visual injury rating 0-100", "summary_of_the_method": "as §1"}, "[24]": {"tested_on": "barnyardgrass (Echinochloa crusgalli)", "test": "Test B flooded paddy test, visual plant response rating 0-100", "settings": "250 g ai/ha, Flood, applied to paddy water, evaluated after 13 days", "summary_of_the_method": "(§2)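 Visual scores versus untreated controls were recorded 13 days after treatment of greenhouse-held plants. At the 2-leaf stage, pots were flooded 3 cm above the soil surface and compounds added straight to the water.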"}, "[25]": {"tested_on": "ducksalad (Heteranthera limosa)", "test": "Test B flooded paddy test, visual plant response rating 0-100", "settings": "250 g ai/ha, Flood, applied to paddy water, evaluated after 13 days", "summary_of_the_method": "as §2"}, "rice (Oryza sativa)": {"tested_on": "rice (Oryza sativa)", "test": "Test B flooded paddy test, visual plant response rating 0-100", "settings": "250 g ai/ha, Flood, applied to paddy water, evaluated after 13 days", "summary_of_the_method": "as §2"}, "[26]": {"tested_on": "sedge, umbrella (small-flower umbrella sedge, Cyperus difformis)", "test": "Test B flooded paddy test, visual plant response rating 0-100", "settings": "250 g ai/ha, Flood, applied to paddy water, evaluated after 13 days", "summary_of_the_method": "as §2"}, "[27]": {"settings": "62 g ai/ha, 0 = no effect, 100 = complete control"}, "[28]": {"settings": "62 g ai/ha, postemergence, 10 days, 0 = no effect, 100 = complete control"}, "[29]": {"settings": "Postemergence, 16 g ai/ha, greenhouse 10 days, 0 no effect, 100 complete control"}}, "data": [{"compound": "COC(=O)C1CC(NC(=O)C2(C)CN(c3cc(F)cc(Cl)c3)C(=O)O2)C1", "note": "(centres unmarked) [Compound 145]", "values": [{"measurement": "Barnyardgrass plant response rating", "setting": "[1]; 16 g ai/ha, 0 to 100 scale", "result": 20}, {"measurement": "Barnyardgrass plant response rating (0-100)", "setting": "[1]; [27]", "result": 80}, {"measurement": "Blackgrass plant response rating", "setting": "[2]; 16 g ai/ha, 0 to 100 scale", "result": 0}, {"measurement": "Blackgrass plant response rating (0-100)", "setting": "[2]; [27]", "result": 80}, {"measurement": "Corn plant response rating", "setting": "corn (Zea mays) [3]; 16 g ai/ha, 0 to 100 scale", "result": 10}, {"measurement": "Corn plant response rating (0-100)", "setting": "corn (Zea mays) [3]; [27]", "result": 80}, {"measurement": "Foxtail, Green plant response rating", "setting": "[4]; 16 g ai/ha, 0 to 100 scale", "result": 10}, {"measurement": "Foxtail, Green plant response rating (0-100)", "setting": "[4]; [27]", "result": 90}, {"measurement": "Kochia plant response rating", "setting": "kochia (Bassia scoparia) [5]; 16 g ai/ha, 0 to 100 scale", "result": 0}, {"measurement": "Kochia plant response rating (0-100)", "setting": "kochia (Bassia scoparia) [5]; [27]", "result": 0}, {"measurement": "Oat, Wild plant response rating", "setting": "[6]; 16 g ai/ha, 0 to 100 scale", "result": 20}, {"measurement": "Oat, Wild plant response rating (0-100)", "setting": "[6]; [27]", "result": 80}, {"measurement": "Pigweed, Palmer plant response rating", "setting": "[7]; 16 g ai/ha, 0 to 100 scale", "result": 0}, {"measurement": "Pigweed, Palmer plant response rating (0-100)", "setting": "[7]; [27]", "result": 0}, {"measurement": "Ragweed plant response rating", "setting": "[8]; 16 g ai/ha, 0 to 100 scale", "result": 0}, {"measurement": "Ragweed plant response rating (0-100)", "setting": "[8]; [27]", "result": 0}, {"measurement": "Ryegrass, Italian plant response rating", "setting": "[9]; 16 g ai/ha, 0 to 100 scale", "result": 30}, {"measurement": "Ryegrass, Italian plant response rating (0-100)", "setting": "[9]; [27]", "result": 100}, {"measurement": "Soybean plant response rating", "setting": "soybean (Glycine max) [10]; 16 g ai/ha, 0 to 100 scale", "result": 0}, {"measurement": "Soybean plant response rating (0-100)", "setting": "soybean (Glycine max) [10]; [27]", "result": 50}, {"measurement": "Wheat plant response rating", "setting": "[11]; 16 g ai/ha, 0 to 100 scale", "result": 80}, {"measurement": "Wheat plant response rating (0-100)", "setting": "[11]; [27]", "result": 90}, {"measurement": "Barnyardgrass plant response rating (0-100)", "setting": "[12]; [28]", "result": 100}, {"measurement": "Barnyardgrass plant response rating (0 to 100 scale)", "setting": "[12]; [29]", "result": 100}, {"measurement": "Blackgrass plant response rating (0-100)", "setting": "[13]; [28]", "result": 100}, {"measurement": "Blackgrass plant response rating (0 to 100 scale)", "setting": "[13]; [29]", "result": 90}, {"measurement": "Corn plant response rating (0-100)", "setting": "corn (Zea mays) [14]; [28]", "result": 100}, {"measurement": "Corn plant response rating (0 to 100 scale)", "setting": "corn (Zea mays) [14]; [29]", "result": 100}, {"measurement": "Foxtail, Green plant response rating (0-100)", "setting": "[15]; [28]", "result": 90}, {"measurement": "Foxtail, Green plant response rating (0 to 100 scale)", "setting": "[15]; [29]", "result": 90}, {"measurement": "Horseweed plant response rating (0-100)", "setting": "[16]; [28]", "result": 30}, {"measurement": "Horseweed plant response rating (0 to 100 scale)", "setting": "[16]; [29]", "result": 30}, {"measurement": "Kochia plant response rating (0-100)", "setting": "kochia (Bassia scoparia) [17]; [28]", "result": 90}, {"measurement": "Kochia plant response rating (0 to 100 scale)", "setting": "kochia (Bassia scoparia) [17]; [29]", "result": 60}, {"measurement": "Oat, Wild plant response rating (0-100)", "setting": "[18]; [28]", "result": 90}, {"measurement": "Oat, Wild plant response rating (0 to 100 scale)", "setting": "[18]; [29]", "result": 90}, {"measurement": "Pigweed, Palmer plant response rating (0-100)", "setting": "[19]; [28]", "result": 70}, {"measurement": "Pigweed, Palmer plant response rating (0 to 100 scale)", "setting": "[19]; [29]", "result": 10}, {"measurement": "Ragweed plant response rating (0-100)", "setting": "[20]; [28]", "result": 20}, {"measurement": "Ragweed plant response rating (0 to 100 scale)", "setting": "[20]; [29]", "result": 0}, {"measurement": "Ryegrass, Italian plant response rating (0-100)", "setting": "[21]; [28]", "result": 90}, {"measurement": "Ryegrass, Italian plant response rating (0 to 100 scale)", "setting": "[21]; [29]", "result": 70}, {"measurement": "Soybean plant response rating (0-100)", "setting": "soybean (Glycine max) [22]; [28]", "result": 80}, {"measurement": "Soybean plant response rating (0 to 100 scale)", "setting": "soybean (Glycine max) [22]; [29]", "result": 50}, {"measurement": "Wheat plant response rating (0-100)", "setting": "[23]; [28]", "result": 90}, {"measurement": "Wheat plant response rating (0 to 100 scale)", "setting": "[23]; [29]", "result": 90}, {"measurement": "Plant response rating, Barnyardgrass (0 to 100 scale, 0 is no effect and 100 is complete control)", "setting": "[24]", "result": 60}, {"measurement": "Plant response rating, Ducksalad (0 to 100 scale, 0 is no effect and 100 is complete control)", "setting": "[25]", "result": 60}, {"measurement": "Plant response rating, Rice (0 to 100 scale, 0 is no effect and 100 is complete control)", "setting": "rice (Oryza sativa)", "result": 40}, {"measurement": "Plant response rating, Sedge, Umbrella (0 to 100 scale, 0 is no effect and 100 is complete control)", "setting": "[26]", "result": 50}]}]}
